Our source for the EC50 values is BindingDB's records for doi:10.1016/j.ejmech.2018.11.015 (Fudan University, 2019).

Each structure is given as a SMILES string.

The nature of this test: Inhibition of PB2 in Influenza A virus (A/Weiss/1943(H1N1)) infected in MDCK cells assessed as reduction in virus induced cell death after 5 days by CCK-8 assay. (Formazan colour is commonly taken as a measure of viable cells.)

The term EC50 denotes the concentration at which the effect is half-maximal. Regarding `O=C(O)[C@H]1C2CCC(CC2)[C@@H]1Nc1nc(-c2c[nH]c3ncc(F)cc23)ncc1F`, the EC50 was 0.6 nM. Take `O=C(O)[C@H]1C2CCC(CC2)[C@@H]1N1CCOc2cnc(-c3c[nH]c4ncc(F)cc34)nc21`: the EC50 was 24 nM.

Regarding `Cn1cc(F)c2c(N[C@H]3C4CCC(CC4)[C@@H]3C(=O)O)nc(-c3c[nH]c4ncc(F)cc34)nc21`, the EC50 worked out at 9.6 nM. In the case of `O=C(O)[C@H]1C2CCC(CC2)[C@@H]1Nc1nc(-c2c[nH]c3ncc(F)cc23)nc2c1CCS2` it was 2.8 nM.

For the molecule `N#Cc1cn([C@H]2C3CCC(CC3)[C@@H]2C(=O)O)c2nc(-c3c[nH]c4ncc(F)cc34)ncc12`, the EC50 came out at 70 nM. The same measure for `N#Cc1csc2c(N[C@H]3C4CCC(CC4)[C@@H]3C(=O)O)nc(-c3c[nH]c4ncc(F)cc34)nc12`: 4 nM; for `O=C(O)[C@H]1C2CCC(CC2)[C@@H]1Nc1nc(-c2c[nH]c3ncc(F)cc23)nc2c1S(=O)(=O)CC2`: 110 nM; for `O=C(O)[C@H]1C2CCC(CC2)[C@@H]1Nc1nc(-c2c[nH]c3ncc(F)cc23)nc2c1CS(=O)(=O)C2`: 2000 nM. Consider `O=C(O)[C@H]1C2CCC(CC2)[C@@H]1Nc1nc(-c2n[nH]c3ncc(F)cc23)nc2ccsc12`, for which the EC50 was 0.5 nM. In the case of `O=C(O)[C@H]1C2CCC(CC2)[C@@H]1Nc1nc(-c2n[nH]c3ncc(F)cc23)nc2sccc12`, the EC50 came to 0.06 nM. For `O=C(O)[C@H]1C2CCC(CC2)[C@@H]1Nc1nc(-c2n[nH]c3ncc(F)cc23)nc2c1SCC2`, the EC50 was found to be 0.2 nM. Regarding `O=C(O)[C@H]1C2CCC(CC2)[C@@H]1Nc1nc(-n2ccc3ncc(F)cc32)ncc1F`, the EC50 came to 230 nM. In the case of `O=C(O)[C@H]1C2CCC(CC2)[C@@H]1Nc1nc(-c2c[nH]c3ccc(F)cc23)ncc1F`, the 50% effective concentration (EC50) came out at 220 nM. Regarding `O=C(O)[C@H]1C2CCC(CC2)[C@@H]1n1cnc2cnc(-c3c[nH]c4ncc(F)cc34)nc21`, the EC50 worked out at 190 nM. For `O=C(O)[C@H]1C2CCC(CC2)[C@@H]1Nc1nc(-c2c[nH]c3ncc(F)cc23)nc2cccc(F)c12`, the EC50 worked out at 20 nM. As for `O=C(O)[C@H]1C2CCC(CC2)[C@@H]1Nc1nc(-c2c[nH]c3ncc(F)cc23)nc2cccnc12`, the EC50 worked out at 14 nM. Turning to `Cc1cccc2nc(-c3c[nH]c4ncc(F)cc34)nc(N[C@H]3C4CCC(CC4)[C@@H]3C(=O)O)c12`, the EC50 was found to be 11 nM. For the molecule `O=C(O)[C@H]1C2CCC(CC2)[C@@H]1Nc1nc(-c2c[nH]c3ncc(F)cc23)nc2nccnc12`, the EC50 amounted to 13 nM. For `O=C(O)[C@H]1C2CCC(CC2)[C@@H]1Nc1nc(-c2c[nH]c3ncc(F)cc23)nc2c1CCCC2`, the EC50 worked out at 12 nM. Turning to `O=C(O)[C@H]1C2CCC(CC2)[C@@H]1Nc1nc(-c2c[nH]c3ncc(F)cc23)nc2c1CCC2`, the EC50 was 5.5 nM.

In the case of `O=C(O)[C@H]1C2CCC(CC2)[C@@H]1Nc1nc(-c2c[nH]c3ncc(F)cc23)nc2ccoc12`, the EC50 was determined as 5.3 nM.

Take `O=C(O)[C@H]1C2CCC(CC2)[C@@H]1Nc1nc(-c2c[nH]c3ncc(F)cc23)nc2scnc12`: the EC50 turned out to be 3 nM.

Consider `O=C(O)[C@H]1C2CCC(CC2)[C@@H]1Nc1nc(-c2c[nH]c3ncc(F)cc23)nc2[nH]ccc12`, for which the EC50 turned out to be 4.5 nM.

With `Cc1cnc2c(N[C@H]3C4CCC(CC4)[C@@H]3C(=O)O)nc(-c3c[nH]c4ncc(F)cc34)nc2c1`, the EC50 was determined as 11 nM. `O=C(O)[C@H]1C2CCC(CC2)[C@@H]1Nc1nc(-c2c[nH]c3ncc(F)cc23)nc2cc(F)cnc12`: the 50% effective concentration (EC50) is 10 nM. The same measure for `O=C(O)[C@H]1C2CCC(CC2)[C@@H]1Nc1nc(-c2c[nH]c3ncc(F)cc23)nc2ccsc12`: 0.5 nM; for `O=C(O)[C@H]1C2CCC(CC2)[C@@H]1Nc1nc(-c2c[nH]c3ncc(F)cc23)nc2sccc12`: 0.2 nM. With `O=C(O)[C@H]1C2CCC(CC2)[C@@H]1Nc1nc(-c2c[nH]c3ncc(F)cc23)nc2c1SCC2`, the EC50 is 0.4 nM.

Take `O=C(O)[C@H]1C2CCC(CC2)[C@@H]1Nc1nc(-c2c[nH]c3ncc(F)cc23)nc2cscc12`: the EC50 amounted to 1.4 nM. `O=C(O)[C@H]1C2CCC(CC2)[C@@H]1Nc1nc(-c2c[nH]c3ncc(F)cc23)nc2cc(C(F)F)sc12`: the half-maximal effective concentration (EC50) is 10 nM. As for `O=C(O)[C@H]1C2CCC(CC2)[C@@H]1n1ccc2cnc(-c3c[nH]c4ncc(F)cc34)nc21`, the EC50 amounted to 12 nM.

Regarding `O=C(O)[C@H]1C2CCC(CC2)[C@@H]1Nc1nc(-c2c[nH]c3ncc(F)cc23)nc2c1CSC2`, the EC50 is 2.6 nM. In the case of `Cc1cccc2nc(N[C@H]3C4CCC(CC4)[C@@H]3C(=O)O)nc(-c3c[nH]c4ncc(F)cc34)c12` it was 450 nM.
